Experimental data as given in PMC5021751, “Discovery of DNA dyes Hoechst 34580 and 33342 as good candidates for inhibiting amyloid beta formation: in silico and in vitro study” (Journal of Computer-Aided Molecular Design, 2016).
Like-named read-outs stand apart in the source and are kept apart here.

Biological target: T1, Aβ42 (amyloid beta) (Homo sapiens, UniProt P05067)
T1 construct: gene APP
Assay: Thioflavin T fibrillization assay with purified Aβ[…] peptide
Format: biochemical

T1 sequence (P05067 672-713 limits assumed): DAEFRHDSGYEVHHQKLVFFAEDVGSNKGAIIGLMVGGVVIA

CCOc1ccc(-c2nc3cc(-c4nc5cc(N6CCN(C)CC6)ccc5[nH]4)ccc3[nH]2)cc1 [Hoechst 33342]
IC50 (read-out: IC50): 680 ± 50 nM

CN1CCN(c2ccc3[nH]c(-c4ccc5[nH]c(-c6ccc(N(C)C)cc6)nc5c4)nc3c2)CC1 [Hoechst 34580]
IC50: 860 ± 50 nM
